This note sets out measurements from patent US10370356B2, “Pyridinone dicarboxamide for use as bromodomain inhibitors” (GlaxoSmithKline Intellectual Property (No. 2) Limited, priority 2015, dated 2019).

Structures can show the parent of a compound that is named as a salt.

One assay addresses T1, BRD4 BD2 (Homo sapiens, UniProt O60885, Y97A).
T1 construct: BRD4 (1-477) (Y97A) and (Y390A); made in house; host or cells: E. coli (pET15b vector)
Put plainly: BRD4 BD2 mutant TR-FRET competition assay. It counts as binding. Particulars: average of N recorded values, read-out: BRD4 BD2 IC50 (average value) (converted).
Turning to `CNC(=O)c1cc(C(=O)NCCC2CCNCC2)cn(Cc2cccc3[nH]ccc23)c1=O` [Example 56, 1-((1H-Indol-4-yl)methyl)-N^3-methyl-2-oxo-N5-(2-(piperidin-4-yl)ethyl)-1,2-dihydropyridine-3,5-dicarboxamide], the IC50 was 0.0158 µM.

Still in this assay, the particulars now being: read-out: pIC50 in the BRD4 BD2 assay (converted).
Regarding `CNC(=O)c1cc(C(=O)NCCCN2CCOCC2)cn(Cc2ccccc2)c1=O` [Example 37, 1-Benzyl-N^3-methyl-N^5-(3-morpholinopropyl)-2-oxo-1,2-dihydropyridine-3,5-dicarboxamide], the IC50 is 0.1 to 1 µM. On the same count and under the same terms, the same measure for `CNC(=O)c1cc(C(=O)NCCC2CCCN(C(=O)OC(C)(C)C)C2)cn(Cc2ccccc2)c1=O` (centres unmarked) [Example 38, tert-Butyl 3-(2-(1-benzyl-5-(methylcarbamoyl)-6-oxo-1,6-dihydropyridine-3-carboxamido)ethyl)piperidine-1-carbxylate]: 1 to 100 µM; for `CNC(=O)c1cc(C(=O)NCCC2CCCCN2)cn(Cc2ccccc2)c1=O` (centres unmarked) [Example 40, 1-Benzyl-N^3-methyl-2-oxo-N^5-(2-(piperidin-2-yl)ethyl)-1,2-dihydropyridine-3,5-dicarboxamide hydrochloride]: 0.1 to 1 µM; for `CNC(=O)c1cc(C(=O)NC2CCCS(=O)(=O)C2)cn(Cc2ccccc2)c1=O` (centres unmarked) [Example 42, 1-Benzyl-N^5-(1,1-dioxidotetrahydro-2H-thiopyran-3-yl)-N^3-methyl-2-oxo-1,2-dihdyropyridine-3,5-dicarboxamide]: 1 to 100 µM. On the same count and under the same terms, to `CNC(=O)c1cc(C(=O)NC2CCS(=O)(=O)C2)cn(Cc2ccccc2)c1=O` (centres unmarked) [Example 43, 1-Benzyl-N^5-(1,1-dioxidotetrahydrothiophen-3-yl)-N^3-methyl-2-oxo-1,2-dihydroypridine-3,5-dicarboxamide] belongs 0.1 to 1 µM; to `CNC(=O)c1cc(C(=O)NC2CCS(=O)(=O)CC2)cn(Cc2ccccc2)c1=O` [Example 44, 1-Benzyl-N^5-(1,1-dioxidotetrahydro-2H-thiopyran-4-yl)-N^3-methyl-2-oxo-1,2-dihydropyridine-3,5-dicarboxamide], 0.1 to 1 µM. Still for that read-out and setting: to `CNC(=O)c1cc(C(=O)NCCCN2CCCCC2)cn(Cc2ccccc2)c1=O` [Example 45, 1-Benzyl-N^3-methyl-2-oxo-N^5-(3-(piperidin-1-yl)propyl)-1,2-dihydropyridine-3,5-dicarboxamide hydrochloride] belongs 0.1 to 1 µM; to `CNC(=O)c1cc(C(=O)NC[C@H]2CCCOC2)cn(Cc2ccccc2)c1=O` [Example 46, (R)-1-Benzyl-N^3-methyl-2-oxo-N^5-((tetrahydro-2H-pyran-3-yl)methyl)-1,2-dihydropyridine-3,5-dicarboxamide], 0.1 to 1 µM; to `CNC(=O)c1cc(C(=O)NC[C@@H]2CCCOC2)cn(Cc2ccccc2)c1=O` [Example 47, (S)-1-Benzyl-N^3-methyl-2-oxo-N^5-((tetrahydro-2H-pyran-3-yl)methyl)-1,2-dihydropyridine-3,5-dicarboxamide], 0.1 to 1 µM. Regarding `CNC(=O)c1cc(C(=O)NCC2CCS(=O)(=O)C2)cn(Cc2ccccc2)c1=O` (centres unmarked) [Example 48, 1-Benzyl-N^5-((1,1-dioxidotetrahydrothiophen-3-yl)methyl)-N^3-methyl-2-oxo-1,2-dihydropyridine-3,5-dicarboxamide], the IC50 is 1 to 100 µM. With `CNC(=O)c1cc(C(=O)NCC2CCOCC2)cn(Cc2ccccc2)c1=O` [Example 49, 1-Benzyl-N^3-methyl-2-oxo-N^5-((tetrahydro-2H-pyran-4-yl)methyl)-1,2-dihydroopyridine-3,5-dicarboxamide], the IC50 was 0.1 to 1 µM.

Regarding `CNC(=O)c1cc(C(=O)NC2CCCOC2)cn(Cc2ccccc2)c1=O` (centres unmarked) [Example 50, 1-Benzyl-N^3-methyl-2-oxo-N^5-(tetrahydro-2H-pyran-3-yl)-1,2-dihdyropyridine-3,5-dicarboxamide], the IC50 is 0.1 to 1 µM. Still for that read-out and setting: to `CNC(=O)c1cc(C(=O)NCCCN2CCN(C)CC2)cn(Cc2ccccc2)c1=O` [Example 51, 1-Benzyl-N^3-methyl-N^5-(3-(4-methylpiperazin-1-yl)propyl)-2-oxo-1,2-dihydropyridine-3,5-dicarboxamide] belongs 0.1 to 1 µM; to `CNC(=O)c1cc(C(=O)NCCCN2CCS(=O)(=O)CC2)cn(Cc2ccccc2)c1=O` [Example 52, 1-Benzyl-N^5-(3-(1,1-dioxidothiomorpholino)propyl)-N^3-methyl-2-oxo-1,2-dihydropyridine-3,5-dicarboxamide], 0.1 to 1 µM; to `CNC(=O)c1cc(C(=O)NCC2CCS(=O)(=O)CC2)cn(Cc2ccccc2)c1=O` [Example 53, 1-Benzyl-N^5-((1,1-dioxidotetrahydro-2H-thiopyran-4-yl)methyl)-N^3-methyl-2-oxo-1,2-dihydropyridine-3,5-dicarboxamide], 1 to 100 µM. Same read-out and setting: to `CNC(=O)c1cc(C(=O)NCCC2CCNCC2)cn(Cc2cccc3[nH]ccc23)c1=O` [Example 56, 1-((1H-Indol-4-yl)methyl)-N^3-methyl-2-oxo-N5-(2-(piperidin-4-yl)ethyl)-1,2-dihydropyridine-3,5-dicarboxamide] belongs at most 0.1 µM; to `CNC(=O)c1cc(C(=O)NCCCC2(O)CCNCC2)cn(Cc2ccccc2)c1=O` [Example 57, 1-Benzyl-N^5-(3-(4-hydroxypiperidin-4-yl)propyl)-N^3-methyl-2-oxo-1,2-dihydropyridine-3,5-dicarboxamide], at most 0.1 µM.

Turning to `CNC(=O)c1cc(C(=O)NCCCC2CCCN(C(=O)OC(C)(C)C)C2)cn(Cc2ccccc2)c1=O` (centres unmarked) [Example 59, tert-Butyl 3-(3-(1-benzyl-5-(methylcarbamoyl)-6-oxo-1,6-dihydropyridine-3-carboxamido)propyl)piperidine-1-carboxylate], the IC50 was 0.1 to 1 µM. On the same count and under the same terms, to `CNC(=O)c1cc(C(=O)NCCCC2(F)CCNCC2)cn(Cc2ccccc2)c1=O` [Example 61, 1-Benzyl-N^5-(3-(4-fluoropiperidin-4-yl)propyl)-N^3-methyl-2-oxo-1,2-dihydropyridine-3,5-dicarboxamide hydrochloride] belongs at most 0.1 µM; to `CNC(=O)c1cc(C(=O)NCCC2CN(C)CCO2)cn(Cc2ccccc2)c1=O` (centres unmarked) [Example 64, 1-benzyl-N^3-methyl-N^5-(2-(4-methylmorpholin-2-yl)ethyl)-2-oxo-1,2-dihydropyridine-3,5-dicarboxamide], 0.1 to 1 µM; to `CNC(=O)c1cc(C(=O)NCCC2CN(C(C)=O)CCO2)cn(Cc2ccccc2)c1=O` (centres unmarked) [Example 65, N^5-(2-(4-acetylmorpholin-2-yl)ethyl)-1-benzyl-N^3-methyl-2-oxo-1,2-dihydropyridine-3,5-dicarboxamide], 0.1 to 1 µM. The same measure, in the same setting: to `CNC(=O)c1cc(C(=O)NCCC2CNCCO2)cn(Cc2ccccc2)c1=O` (centres unmarked) [Example 66, 1-benzyl-N^3-methyl-N^5-(2-(morpholin-2-yl)ethyl)-2-oxo-1,2-dihydropyridine-3,5-dicarboxamide hydrochloride] belongs 0.1 to 1 µM. Same read-out and setting: the same measure for `CNC(=O)c1cc(C(=O)NCCOC2CCNC2)cn(Cc2ccccc2)c1=O` (centres unmarked) [Example 67, 1-benzyl-N3-methyl-2-oxo-N5-(2-(pyrrolidin-3-yloxy)ethyl)-1,2-dihydropyridine-3,5-dicarboxamide, hydrochloride]: 0.1 to 1 µM; for `CNC(=O)c1cc(C(=O)NCCOC2CCCNC2)cn(Cc2ccccc2)c1=O` (centres unmarked) [Example 68, 1-benzyl-N^3-methyl-2-oxo-N^5-(2-(piperidin-3-yloxy)ethyl)-1,2-dihydropyridine-3,5-dicarboxamide]: 0.1 to 1 µM; for `CNC(=O)c1cc(C(=O)N[C@H]2[C@@H]3COC[C@@H]32)cn(Cc2ccccc2)c1=O` [Example 69, 1-Benzyl-N^5-((1R,5S,6r)-3-oxabicyclo[3.1.0]hexan-6-yl)-N^3-methyl-2-oxo-1,2-dihydropyridine-3,5-dicarboxamide]: at most 0.1 µM. Take `CNC(=O)c1cc(C(=O)NCCCC2CCCN(C)C2)cn(Cc2ccccc2)c1=O` (centres unmarked) [Example 70, 1-Benzyl-N^3-methyl-N^5-(3-(1-methylpiperidin-3-yl)propyl)-2-oxo-1,2-dihydropyridine-3,5-dicarboxamide]: the IC50 is at most 0.1 µM.

With `CNC(=O)c1cc(C(=O)NCCCC2CCCN(CCF)C2)cn(Cc2ccccc2)c1=O` (centres unmarked) [Example 71], the IC50 was at most 0.1 µM. The same measure, in the same setting: the same measure for `CNC(=O)c1cc(C(=O)N[C@H]2[C@@H]3COC[C@@H]32)cn(Cc2cccc(OC)c2)c1=O` [Example 72, N5-((1R,5S,6r)-3-Oxabicyclo[3.1.0]hexan-6-yl)-1-(3-methoxybenzyl)-N^3-methyl-2-oxo-1,2-dihydropyridine-3,5-dicarboxamide]: at most 0.1 µM. The same measure, in the same setting: the same measure for `CNC(=O)c1cc(C(=O)NCCCC2CCN(C(C)=O)CC2)cn(Cc2cccc3[nH]ccc23)c1=O` [Example 74]: at most 0.1 µM; for `CNC(=O)c1cc(C(=O)N[C@H]2[C@@H]3CN(C(=O)OC(C)(C)C)C[C@@H]32)cn(Cc2ccccc2)c1=O` [Example 75, (1R,5S,6s)-Tert-butyl 6-(1-benzyl-5-(methylcarbamoyl)-6-oxo-1,6-dihydropyridine-3-carboxamido)-3-azabicyclo[3.1.0]hexane-3-carboxylate]: at most 0.1 µM. Still for that read-out and setting: the same measure for `CNC(=O)c1cc(C(=O)N[C@H]2[C@@H]3CNC[C@@H]32)cn(Cc2ccccc2)c1=O` [Example 76, 1-Benzyl-N^5-((1R,5S,6s)-3-azabicyclo[3.1.0]hexan-6-yl)-N^3-methyl-2-oxo-1,2-dihydropyridine-3,5-dicarboxamide]: at most 0.1 µM.

Regarding `CCNC(=O)c1cc(C(=O)NCCCC2CCNCC2)cn(Cc2ccccc2)c1=O` [Example 78, 1-benzyl-N^3-ethyl-2-oxo-N^5-(3-(piperidin-4-yl)propyl)-1,2-dihydropyridine-3,5-dicarboxamide], the IC50 was 0.1 to 1 µM. Regarding `CNC(=O)c1cc(C(=O)N[C@H]2[C@@H]3CN(C(=O)OC(C)(C)C)C[C@@H]32)cn(Cc2cccc3[nH]ccc23)c1=O` [Example 79, (1R,5S,6s)-tert-Butyl 6-(1-((1H-indol-4-yl)methyl)-5-(methylcarbamoyl)-6-oxo-1,6-dihydropyridine-3-carboxamido)-3-azabicyclo[3.1.0]hexane-3-carboxylate], the IC50 was at most 0.1 µM. For `CNC(=O)c1cc(C(=O)N[C@H]2[C@@H]3CNC[C@@H]32)cn(Cc2cccc3[nH]ccc23)c1=O` [Example 80], the IC50 was at most 0.1 µM.
